Columns and labels:
Assay type in all cases: cell-based
[1] = target: T1, CXCR3 (Homo sapiens, UniProt P49682); assay: Migration of CHO-K1 cells expressing CXCR3; set-up: cDNA fragments encompassing chemokine receptor coding regions; expressed in transfected cells; host or cells: CHO-K1 (ATCC CCL-61), transient transfection; details: CHO-K1 cells expressing CXCR3, 2 hours; FIG. 3
T1 sequence (P49682 1-368): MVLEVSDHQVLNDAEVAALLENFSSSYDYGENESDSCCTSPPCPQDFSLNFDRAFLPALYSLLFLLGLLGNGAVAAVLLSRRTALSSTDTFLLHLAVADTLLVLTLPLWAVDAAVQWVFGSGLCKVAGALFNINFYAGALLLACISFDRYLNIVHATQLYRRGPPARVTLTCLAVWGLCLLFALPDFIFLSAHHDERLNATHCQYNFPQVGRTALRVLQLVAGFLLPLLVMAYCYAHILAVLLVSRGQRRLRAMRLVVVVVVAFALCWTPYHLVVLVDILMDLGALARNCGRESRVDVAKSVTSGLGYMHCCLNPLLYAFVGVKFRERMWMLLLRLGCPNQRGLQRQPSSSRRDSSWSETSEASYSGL
Procedure: (§1) CHO-K1 cells were obtained from American Type Culture Collection (CCL-61) and cultured in Ham's F12 media supplemented with 10% heat inactivated FBS and 100 μg/ml penicillin/streptomycin. cDNA fragments encompassing chemokine receptor coding regions were obtained from cDNAs synthesized from HL-60 cells and/or human peripheral blood mononuclear cells by the polymerase chain reaction. Expression constructs of chemokine receptors were generated by cloning PCR fragments into expression vector pEF6/V5-TOPO (K9610-20, Invitrogen). Transient transfections were carried out with Fugene 6 transfection reagent (1814443, Roche Applied Science) according to the manufacturer's instructions.
(§2) The CHO-chemokine receptor cells were used in migration assays 36 hours following transfection. In vitro migration assays were performed using a Neuroprobe Blindwell migration apparatus (AA12, Neuro Probe, Inc./16008 Industrial Drive, Gaithersburg, Md. 20877) according to the manufacturer's instructions with slight modifications. […]
(§3) Following the migration assays, migrated cells that had adhered to the underside of the filter were quantitated according to the manufacturer's instructions. […] Stained filtered were mounted onto microscope slides and migrated cells in each well were manually counted under 40× magnification.

[2] = target: T2, FMLP receptor (Homo sapiens, UniProt P21462); assay: Migration of CHO-K1 cells expressing the FMLP receptor; details: 2 hours, FIG. 4
T2 construct: cDNA fragments encompassing chemokine receptor coding regions; expressed in transfected cells; host or cells: CHO-K1 (ATCC CCL-61), transient transfection
T2 sequence (P21462 1-350): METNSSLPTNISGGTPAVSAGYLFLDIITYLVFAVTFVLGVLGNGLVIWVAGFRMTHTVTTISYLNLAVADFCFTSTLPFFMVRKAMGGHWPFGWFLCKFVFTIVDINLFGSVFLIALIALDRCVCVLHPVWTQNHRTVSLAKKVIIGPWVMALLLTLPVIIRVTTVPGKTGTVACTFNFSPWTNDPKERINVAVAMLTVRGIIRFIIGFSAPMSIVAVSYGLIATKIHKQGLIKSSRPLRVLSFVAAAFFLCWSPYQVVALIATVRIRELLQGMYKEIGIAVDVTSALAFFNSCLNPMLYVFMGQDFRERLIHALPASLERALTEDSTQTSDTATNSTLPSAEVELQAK
Procedure: as §1, §2, §3

[3] = target: T3, CX3CR1 (Homo sapiens, UniProt P49238); assay: Migration of CHO-K1 cells expressing CX3CR1; details: CHO-K1 cells expressing CX3CR1, 2 hours; FIG. 3
T3 construct: cDNA fragments encompassing chemokine receptor coding regions; expressed in transfected cells; host or cells: CHO-K1 (ATCC CCL-61), transient transfection
T3 sequence (P49238 1-355): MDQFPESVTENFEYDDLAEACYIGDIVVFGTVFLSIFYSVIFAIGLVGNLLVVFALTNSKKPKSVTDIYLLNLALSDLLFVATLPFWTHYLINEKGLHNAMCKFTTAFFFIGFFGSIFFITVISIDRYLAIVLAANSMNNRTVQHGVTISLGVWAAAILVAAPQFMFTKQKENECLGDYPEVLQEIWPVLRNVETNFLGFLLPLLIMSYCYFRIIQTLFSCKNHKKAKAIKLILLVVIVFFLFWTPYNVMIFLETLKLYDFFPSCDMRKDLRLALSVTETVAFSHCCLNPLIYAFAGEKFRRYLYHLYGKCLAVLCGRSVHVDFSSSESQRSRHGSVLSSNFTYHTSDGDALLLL
Procedure: as §1, §2, §3

[4] = target: T4, CXCR1 (Homo sapiens, UniProt P25024); assay: Migration of CHO-K1 cells expressing CXCR1; details: CHO-K1 cells expressing CXCR1, 2 hours; degree similar to IL-8; FIG. 3
T4 construct: cDNA fragments encompassing chemokine receptor coding regions; expressed in transfected cells; host or cells: CHO-K1 (ATCC CCL-61), transient transfection
T4 sequence (P25024 1-350): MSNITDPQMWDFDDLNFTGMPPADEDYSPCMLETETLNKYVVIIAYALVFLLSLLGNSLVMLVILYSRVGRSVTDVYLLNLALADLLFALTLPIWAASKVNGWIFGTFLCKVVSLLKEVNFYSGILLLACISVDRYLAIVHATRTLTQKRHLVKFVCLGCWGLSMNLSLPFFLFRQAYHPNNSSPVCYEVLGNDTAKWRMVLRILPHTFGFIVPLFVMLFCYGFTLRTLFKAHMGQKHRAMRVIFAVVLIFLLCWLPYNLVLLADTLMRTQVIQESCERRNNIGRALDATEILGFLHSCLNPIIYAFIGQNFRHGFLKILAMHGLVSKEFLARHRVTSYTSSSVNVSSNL
Procedure: as §1, §2, §3

SMILES: CC(C)(C)c1cc(/C=[N+](\[O-])C(C)(C)C)cc(C(C)(C)C)c1O [Compound 1, α-(4-hydroxy-3,5-di-tert-butylphenyl)-N-tert-butylnitrone]
- induction of cell migration [1]: induced migration
- induction of cell migration [2]: did not induce migration
- induction of cell migration [3]: induced migration
- induction of cell migration [4]: induced migration

Reference: patent US20050215646A1, “Methods for treating multiple sclerosis and pharmaceutical compositions therefor” (Renovis, Inc., priority 2004, published 2005)
